# Columns and labels:
# [1] = system: HK; experiment: Phase 1 study, ex vivo DXS-stimulated cleavage of HK (Wes capillary immunoassay); type: in vivo, human; conditions: 600 mg capsules, up to 12 hrs post-dose
# Method: DXS-stimulated cleavage of HK, in undiluted plasma was quantified by capillary-based immunoassay on the Wes System (ProteinSimple) using monoclonal anti-HK antibody and chemiluminescence-based detection. Plasma kallikrein mediated HK cleavage in undiluted citrated human plasma was induced by contact system activation with DXS (6.25 μg/ml) at 4° C. in selected samples from the SAD phase.
# [2] = molecular target: PKa (Homo sapiens, UniProt P03952); experiment: Protection of HK from PKa-mediated cleavage in DXS-stimulated HAE and control plasma; type: biochemical; conditions: HAE and healthy control plasma stimulated with dextran sulfate, WES
# Sequence of PKa (P03952 391-638 limits assumed): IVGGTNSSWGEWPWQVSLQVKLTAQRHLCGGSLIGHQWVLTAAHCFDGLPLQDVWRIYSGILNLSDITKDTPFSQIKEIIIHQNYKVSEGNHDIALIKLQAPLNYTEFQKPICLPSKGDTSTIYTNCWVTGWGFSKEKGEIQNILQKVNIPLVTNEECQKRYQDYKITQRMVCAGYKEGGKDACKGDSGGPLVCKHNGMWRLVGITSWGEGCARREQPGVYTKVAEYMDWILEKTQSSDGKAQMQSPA
# Sequence of PKa (P03952 20-390 partner limits assumed): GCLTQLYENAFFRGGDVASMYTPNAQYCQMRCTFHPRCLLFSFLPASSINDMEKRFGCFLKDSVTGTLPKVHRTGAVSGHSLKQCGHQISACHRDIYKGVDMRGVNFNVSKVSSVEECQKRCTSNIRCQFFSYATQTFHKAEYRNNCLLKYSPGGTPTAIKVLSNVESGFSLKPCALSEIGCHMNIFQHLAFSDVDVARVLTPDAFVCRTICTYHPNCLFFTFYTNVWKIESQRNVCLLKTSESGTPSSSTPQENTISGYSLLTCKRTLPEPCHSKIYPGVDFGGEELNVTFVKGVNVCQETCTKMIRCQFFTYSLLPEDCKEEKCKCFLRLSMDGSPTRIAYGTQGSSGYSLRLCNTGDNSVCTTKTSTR
# Method: High molecular weight kininogen (HK) cleavage in undiluted citrated human plasma was induced by contact system activation with dextran sulfate (DXS, Sigma #31395-10G; 6.25 μg/ml) on wet ice. […] HAE plasma was obtained from HAE subjects (n=6) and C1-inhibitor deficiency was confirmed by western blotting. Protection of HK from PKa mediated cleavage in DXS-stimulated whole undiluted plasma was then determined by two methods; traditional western blotting and a semi-automated capillary-based immunoassay.
# Western blotting: SDS-PAGE gel electrophoresis was done using 7.5% Criterion TGX Precast gels (Bio-rad). Transfer was made onto Immobilon-FL PVDF membrane. Image analysis was performed using the LICOR imaging system. Mouse monoclonal anti-human HK antibody (MAB15692, R&D systems) was used for traditional immunoblotting.
# Capillary-Based Immunoassay on the WES System (ProteinSimple):
# Preparation of samples: Combine one part 5× fluorescent master mix with four parts of the 1:200 plasma sample. Vortex to mix. Heat the samples+fluorescent master mix and the biotinylated ladder at 95° C. for 5 minutes, vortex, and load onto the WES plate. […] The peak area is defined as the area calculated for the spectral peak profile for HK. To measure the plasma kallikrein inhibition by the compound, the percent full-length HK detected was calculated.
# [3] = Phase 1 multiple dose study, safety, tolerability and ECG; type: in vivo, human; conditions: total 1800 mg, healthy adults
# Method: This was a phase 1, double-blind, placebo-controlled, multiple-dose, multiple-cohort study to evaluate safety and tolerability of the compound as well as of the ECG effects of the compound formulated as 100 mg Film Coated Tablets in healthy adult male and female subjects.
# Four (4) cohorts were evaluated. Cohorts 1, 2 and 3 included 8 subjects each. Cohort 4 included 18 subjects. Every attempt was made to include an equal number of male and female subjects in each cohort.
# During the study, oral doses of 600 mg of the compound as Film Coated Tablets (six 100 mg tablets) or 6 matching placebo tablets were administered once every 8 hours (Cohort 1) every 4 hours (Cohort 2), or every 2 hours (Cohort 3 and 4) to healthy adult male and female subjects up to a total dose of 1800 mg. In Cohorts 1, 2 and 3, 6 subjects received the compound as 100 mg Film Coated Tablets and 2 subjects received the placebo for a total of 8 subjects per cohort. In Cohort 4, 12 subjects received the compound as 100 mg Film Coated Tablets and 6 subjects received the placebo for a total of 18 subjects.
# A Holter monitor was attached to each subject in order to continuously record ECGs. The monitor was attached 1 hour before the first dose and remained attached until after the final blood sample collection. The electrodes for the Holter monitor were checked by a member of the clinic staff at appropriate intervals to ensure they were attached.
# [4] = molecular target: plasma kallikrein (Homo sapiens, UniProt P03952); experiment: Phase 1 study, ex vivo PKa catalytic activity in DXS-stimulated undiluted plasma; design: samples from a Phase 1 Single Ascending Dose Study in healthy adult males; from tissue; host or cells: undiluted plasma of healthy adult male volunteers after oral dosing; conditions: 600 mg tablet
# Sequence of plasma kallikrein (P03952 391-638 limits assumed): as the sequence (P03952 391-638 limits assumed) above
# Sequence of plasma kallikrein (P03952 20-390 partner limits assumed): as the sequence (P03952 20-390 partner limits assumed) above
# Method: PD measurements were determined in dextran sulfate (DXS) stimulated undiluted plasma using a fluorogenic enzyme assay and capillary based HK cleavage immunoassay.
# The time until appearance of detectable amidolytic enzyme activity in DXS-stimulated plasma (lag time) was calculated from the catalytic activity assay. The detection sensitivity of the rate of catalytic activity in plasma based on using a Spark (Tecan) fluorimeter is a fluorescence increase to reach 1ΔF unit/sec.
# [5] = 3 x 600 mg every 8, 4 or 2 hours
structure (smiles),measurement,setting,value
"COCc1nn(Cc2ccc(Cn3ccccc3=O)cc2)cc1C(=O)NCc1nccc(OC)c1F [compound of Formula A, N-[(3-fluoro-4-methoxypyridin-2-yl)methyl]-3-(methoxymethyl)-1-({4-[(2-oxopyridin-1-yl)methyl]phenyl}methyl)pyrazole-4-carboxamide]",effect on HK cleavage,[1],reduces HK cleavage
same,protection against HK cleavage,[2],dose dependent protection against HK cleavage
same,serious adverse events,[3]; [5],No serious adverse events
same,severity of reported adverse events,[3]; [5],mild
same,effects on ECG parameters,[3]; 3 x 600 mg,No clinically relevant effects on the studied ECG parameters
same,lag time until appearance of catalytic activity during contact system activation,[4],increases the time until appearance of catalytic activity
same,food effect on pharmacodynamic profile,[4]; fed vs fasted,no significant food-effect

# — patent US20240122909A1, “TREATMENTS OF HEREDITARY ANGIOEDEMA” (KALVISTA PHARMACEUTICALS LIMITED, priority 2021, published 2024)
